Reference: patent publication US20020192711A1, “Methods for identifying ligands of G-Protein-Coupled receptors” (priority 2001, published 2002)
Entries after “also recorded” stand apart in the source; their conditions may differ.

Tests used:
CCR5 [1] = target: T1, CCR5 (Homo sapiens, UniProt P51681, L55Q); assay: Binding-displacement of radiolabeled MIP-1β at CCR5 (FIG. 2A); conditions: CCR5 in membranes or solubilized and immobilized; various concentrations
T1 construct: made in house; host or cells: insect cells (Sf9 / High Five), baculovirus
T1 sequence (P51681 1-352 L55Q): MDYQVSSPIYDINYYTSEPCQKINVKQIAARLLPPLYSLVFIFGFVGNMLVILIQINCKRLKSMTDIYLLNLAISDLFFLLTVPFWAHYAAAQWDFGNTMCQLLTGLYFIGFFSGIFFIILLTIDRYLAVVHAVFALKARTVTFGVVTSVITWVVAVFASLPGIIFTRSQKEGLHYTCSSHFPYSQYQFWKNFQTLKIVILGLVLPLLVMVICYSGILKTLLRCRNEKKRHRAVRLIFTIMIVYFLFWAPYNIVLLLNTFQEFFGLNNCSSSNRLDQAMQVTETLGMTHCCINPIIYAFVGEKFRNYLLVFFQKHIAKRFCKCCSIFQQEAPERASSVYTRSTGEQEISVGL
Protocol: The CCR5 receptor, either in membranes or solubilized and immobilized onto the column, was incubated with the radiolabeled ligand, MIP-1β, at a set concentration, in the presence of various concentrations of the unlabeled ligand, MIP-1α. […] This displacement of the radioligand with increasing concentrations of unlabeled ligand gave a standard sigmoidal shaped curve. The two curves, one for the membrane binding-displacement and one for the binding-displacement for the immobilized receptor were substantially similar (within the experimental error), indicating similar functional conformation of the receptor in the membranes and immobilized receptor.

β1-adrenergic receptor = β1-adrenergic receptor (Homo sapiens, UniProt P08588); assay: Binding-displacement at β1-adrenergic receptor (FIG. 2D); conditions: membranes or solubilized receptor; 10 μM unlabeled ligand
Protocol: (§1) The β1-adrenergic receptor, either in the membranes or solubilized (according to the invention), was incubated with the radiolabeled ligand, iodocyanopindolol, at a set concentration, in the presence or absence of 10 μM unlabeled ligand (pindolol). In the absence of unlabeled ligand, maximal binding of the radiolabeled ligand is observed.

CCR5 [2] = assay: Affinity purification of THP-1 culture supernatant HPLC fractions on immobilized CCR5, silver stain/mass spectrometry; type: binding; conditions: LPS-induced THP-1 supernatant, RP-HPLC fractions
Protocol: Expressed CCR5-GST was immobilized in the same fashion as described above using a glutathione-sepharose resin. THP-1 cells, a monocytic cell line, were induced with lipopolysaccharide (LPS) from E. coli extracts (Sigma, St. Louis, Mo.), and grown for 48 hours. THP-1 cells were selected for the purpose of this experiment because THP-1 cells are a general monocytic cell line that expresses CCR5 (the receptor of interest). Also, THP-1 cells, and other monocytes are involved in the inflammatory process and migrate to sites of inflammation in response to a chemokine gradient. These cells can also be induced to produce more chemokines by using reagents such as lipopolysaccharide (LPS) from E. coli.
The THP-1 cells were harvested by centrifugation. […] The quantity of RANTES quantitatively determined to be approximately 1 μg in approximately 2-3 L. These crude fractions or pools were purified by CCR5 affinity columns and by incubating with the immobilized CCR5. […]
The CCR5 with column fractions were compared to CCR5-only controls because there are proteins that non-specifically bind to the column, and because the CCR5 receptor and any contaminants present in the preparation can be seen as protein bands. […] Therefore, bands that were detected only in the fraction samples were submitted for sequencing and identified by mass spectrometry. […]

CCR5 [3] = assay: Ligand mixture incubated with immobilized CCR5, western blot detection; type: binding; conditions: mixture of RANTES, MDC, gonadotropin releasing hormone
Protocol: CCR5 was obtained and prepared with a GST tag bound to glutathione column according to the steps provided in Example 1. Thereafter, a ligand mixture (RANTES, MDC, gonadotropin releasing hormone) was incubated with immobilized CCR5 to determine which ligands bound to the receptor. After washing to remove non-specific binding, the SDS-PAGE sample buffer was added to each, boiled for 1 minute, and loaded onto an SDS-PAGE gel. In order to analyze the beads, SDS-PAGE was performed on the various samples and transferred to nitrocellulose by western blotting to determine which ligands were bound. Duplicate samples were run, one group for detection with anti-RANTES antibody and one group for detection with anti-MDC antibody.
The molecular weights (in kDa) as determined by the standards are listed on the left side of the blot. The individual lanes are numbered across the top of the blot. Lanes 1-4 were developed with anti-RANTES antibody. […] The band at approximately 8 kDa is RANTES. […] Lane 3 is a RANTES standard (positive control). Lane 4 is the MDC (macrophage-derived chemokine) standard (negative control—[…]). Lanes 5-8 were developed with anti-MDC (macrophage-derived chemokine, a CCR4 ligand ) antibody. […] Lane 6 is the same as lane 2 but developed with anti-MDC antibody. Lane 7 is RANTES standard and Lane 8 is MDC standard. […]

CCR5 [4] = assay: Affinity de-orphaning: in vitro translated cDNA pool incubated with immobilized CCR5-GST, SDS-PAGE/phosphorimage; type: binding; conditions: human lung cDNA library spiked with RANTES, [35S]-Met, CCR5 on sepharose beads
Protocol: CCR5 was obtained and prepared with a GST tag according to the steps provided in Example 1. CCR5-GST was immobilized on a glutathione column using the GST tag, and incubated with ligands obtained using in vitro translation of small pools of approximately 100 clones from a cDNA library. […] Thereafter, a human lung cDNA library was spiked with RANTES and was transcribed and translated in vitro using the TNT Quick Coupled Wheat Germ kit, available from Promega Corporation (Madison, Wis.) with [^35S]-Met. RANTES cDNA alone was used as a positive control for translation and binding experiments.
A human lung cDNA library was chosen because RANTES was originally isolated from a human lung library. Also, libraries derived from tissues having an abundant number of immune cells, such as spleen and thymus tissues also are possible sources. The cDNA was in a bacterial host (E. coli). In general, the clones were transcribed and translated, and a mixture of their respective proteins was produced in a concentrated sample. This sample then was then probed with a receptor (i.e., CCR5) to determine if there are any proteins in the pool that can bind to the receptor of interest. The concentration was approximately 5×10^9 colony forming units per ml. Thus, dilution was necessary to dilute the number of clones to approximately 100 per pool. […]

C5a receptor = target: T2, C5a receptor (Homo sapiens, UniProt P21730); assay: Binding-displacement at C5a receptor (FIG. 2E); conditions: membranes or solubilized receptor; 10 μM unlabeled ligand
T2 sequence (P21730 1-350): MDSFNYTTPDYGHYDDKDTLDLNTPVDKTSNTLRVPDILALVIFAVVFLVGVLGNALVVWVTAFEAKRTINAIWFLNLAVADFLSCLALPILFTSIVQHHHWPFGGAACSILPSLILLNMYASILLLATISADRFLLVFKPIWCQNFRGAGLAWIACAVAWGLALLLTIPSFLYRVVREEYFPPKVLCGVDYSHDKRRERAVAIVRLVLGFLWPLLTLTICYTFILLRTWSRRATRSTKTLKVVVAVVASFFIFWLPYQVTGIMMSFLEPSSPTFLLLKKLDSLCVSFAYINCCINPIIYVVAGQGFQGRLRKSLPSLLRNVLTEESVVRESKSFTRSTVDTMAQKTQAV
Protocol: as §1, with “[…],” for “β1-adrenergic receptor,”, “C5a,” for “iodocyanopindolol,”, “(C5a).” for “(pindolol).”

CCR5 [5] = conditions: CCR5 membrane preparations; value obtained by Receptor Biology, own preparations comparable; read-out: Kd for MIP1-β binding; cited from earlier work

Sequence of β1-adrenergic receptor (P08588 whole entry, species assumed): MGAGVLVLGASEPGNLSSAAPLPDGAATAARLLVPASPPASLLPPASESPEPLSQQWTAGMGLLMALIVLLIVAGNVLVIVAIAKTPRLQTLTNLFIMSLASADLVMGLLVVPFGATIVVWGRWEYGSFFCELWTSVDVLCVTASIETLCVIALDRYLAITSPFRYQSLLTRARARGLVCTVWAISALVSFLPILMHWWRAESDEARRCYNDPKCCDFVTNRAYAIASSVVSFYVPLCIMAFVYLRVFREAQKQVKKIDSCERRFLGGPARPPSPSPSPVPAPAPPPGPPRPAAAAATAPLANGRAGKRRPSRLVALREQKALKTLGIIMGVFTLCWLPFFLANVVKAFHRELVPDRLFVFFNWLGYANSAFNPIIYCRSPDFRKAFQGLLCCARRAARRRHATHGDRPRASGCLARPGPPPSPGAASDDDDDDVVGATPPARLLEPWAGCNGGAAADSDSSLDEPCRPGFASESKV

Molecule: MIP-1α: natural ligand for CCR5, unlabeled competing ligand
- displacement of radiolabeled MIP-1β by unlabeled ligand (CCR5 [1]): displaced more of the radiolabeled ligand

Molecule: CC(C)NCC(O)COc1cccc2[nH]ccc12 (stereo not drawn) [pindolol]
- displacement of radiolabeled iodocyanopindolol by unlabeled ligand (β1-adrenergic receptor): displacement of the radiolabeled ligand down to background levels

Molecule: statherin: second binder identified from THP-1 supernatant on CCR5 (DSSEEKFLRRIGRFGYGYGPYQPVPEQPLYPQPYQPQYQQYTF; UniProt P02808 20-62, looked up)
- ligand bound to immobilized CCR5, identified by mass spectrometry (CCR5 [2]): binder

Molecule: RANTES: a natural ligand for CCR5
- binding to immobilized CCR5 from ligand mixture (CCR5 [3]): specifically binds to the CCR5 receptor; also recorded: bound specifically to CCR5
- ligand bound to immobilized CCR5, identified by mass spectrometry (CCR5 [2]): ligand for CCR5
- binding of translated ligand to immobilized CCR5 (CCR5 [4]): binding was observed

B1: C5a: ligand of the C5a receptor (protein, UniProt P01031 678-751, looked up)
C5a anaphylatoxin: TLQKKIEEIAAKYKHSVVKKCCYDGACVNNDETCEQRAARISLGPRCIKAFTECCVVASQLRANISHKDMQLGR
modifications: C5a anaphylatoxin
notes: ligand of the C5a receptor
- displacement of radiolabeled C5a by unlabeled ligand (C5a receptor): displacement of the radiolabeled ligand down to background levels

B2: MIP1-β: natural ligand for CCR5, used as radioligand (protein, UniProt P13236 24-92, looked up)
C-C motif chemokine 4: APMGSDPPTACCFSYTARKLPRNFVVDYYETSSLCSQPAVVFQTKRSKQVCADPSESWVQEYVYDLELN
modifications: also: radiolabel
- Kd (CCR5 [5]): < 1 nM

B3: MDC: macrophage-derived chemokine, a CCR4 ligand (protein, UniProt O00626 25-93, looked up)
C-C motif chemokine 22: GPYGANMEDSVCCRDYVRYRLPLRVVKHFYWTSDSCPRPGVVLLTFRDKEICADPRVPWVKMILNKLSQ
- binding to immobilized CCR5 from ligand mixture (CCR5 [3]): does not bind to CCR5
